EC50 data for two molecules are collected here from ChEMBL document CHEMBL1127393 (J Med Chem, 1994).

Test [1] in a line: Tested for the 50% inhibition level against [125I]- gastrin binding to guinea pig gastric glands. Format: functional, tissue-based, Cavia porcellus, Stomach.
The target in test [2] is T1, Gastrin/cholecystokinin type B receptor (Rattus norvegicus, UniProt P30553).
T1 sequence (P30553 whole entry): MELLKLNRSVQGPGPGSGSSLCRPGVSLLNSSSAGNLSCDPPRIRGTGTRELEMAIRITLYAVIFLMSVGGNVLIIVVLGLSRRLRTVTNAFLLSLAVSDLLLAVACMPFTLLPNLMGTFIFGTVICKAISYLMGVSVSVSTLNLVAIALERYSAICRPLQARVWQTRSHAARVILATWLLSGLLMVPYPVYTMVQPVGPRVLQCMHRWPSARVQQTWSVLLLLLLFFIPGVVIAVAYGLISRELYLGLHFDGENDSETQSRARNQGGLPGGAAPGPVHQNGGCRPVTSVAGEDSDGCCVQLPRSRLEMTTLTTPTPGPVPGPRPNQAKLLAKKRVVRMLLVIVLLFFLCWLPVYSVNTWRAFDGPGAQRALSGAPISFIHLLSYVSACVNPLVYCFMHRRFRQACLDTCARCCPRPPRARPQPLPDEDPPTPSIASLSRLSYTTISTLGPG
As to the kind of experiment: Tested for the 50% inhibition level against [125I]- gastrin binding in AR42J cells. Format: cell-based, AR-42J.

Each structure is given as a SMILES string. pEC50: −log10 of the molar value.

In the case of `CSCC[C@H](NC(=O)[C@H](Cc1c[nH]c2ccccc12)NC(=O)CNC(=O)[C@H](Cc1ccc(O)cc1)NC(=O)[C@H](C)NC(=O)[C@H](CCC(=O)O)NC(=O)[C@H](CCC(=O)O)NC(=O)[C@H](CCC(=O)O)NC(=O)[C@H](CCC(=O)O)NC(=O)[C@H](CCC(=O)O)NC(=O)[C@H](CC(C)C)NC(=O)[C@H](Cc1c[nH]c2ccccc12)NC(=O)[C@@H]1CCCN1C(=O)CNC(=O)[C@@H](N)CCC(=O)O)C(=O)N[C@@H](CC(=O)O)C(=O)N[C@@H](Cc1ccccc1)C(N)=O` [GASTRIN], in test [1], the pEC50 (in general, −log10 of the EC50, conventionally taken in molar units) was 6.22.

In the case of `O=C(CCC(=O)N(Cc1ccccc1)/N=N/CCCl)NCCC(=O)NC(Cc1c[nH]c2ccccc12)C(=O)O` (stereo not drawn), the values for the pEC50 in test [1] and in test [2] were 4.20 and 3.70, respectively.
